A short description of this series: Henry solubility constant Hcp at 298.15 K (mol/(m3 Pa)). Conditions: reference: Hiatt (2013).
As to `CCCc1ccccc1` [propylbenzene], the “Henry solubility constant Hcp” value turned out to be 0.0019.

With `ClC(Cl)=C(Cl)Cl` [tetrachloroethene], the “Henry solubility constant Hcp” value was 0.00099.

With `ClC(Cl)(Cl)Cl` [tetrachloromethane], the “Henry solubility constant Hcp” value worked out at 0.0005.

Consider `Cl/C=C/CCl` [trans-1,3-dichloropropene], for which the “Henry solubility constant Hcp” value was 0.0058.

Consider `BrC(Br)Br` [tribromomethane], for which the “Henry solubility constant Hcp” value was determined as 0.022.

Turning to `ClC=C(Cl)Cl` [trichloroethene], the “Henry solubility constant Hcp” value stood at 0.0012.

For the molecule `ClCc1ccccc1CCl` [α,α-dichloro-o-xylene], the “Henry solubility constant Hcp” value is 0.1.
